# Assay results published in PubChem BioAssay AID248 (DTP/NCI, 2004).
# Several values for one entry are separate records, joined by “and”; a condition that tells them apart may be missing. Identical values can stand only once. Toxic doses and inconclusive results are not listed.
# Tested on: L1210 leukemia ip in BDF1 mice, survival T/C
# Experiment: NCI In Vivo Anticancer Drug Screen. Data for tumor model L1210 Leukemia (intraperitoneal) in B6D2F1 (BDF1) mice
# Details: endpoint: mean survival time, higher = longer survival
# How it was run: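 Antitumor effect is assessed in tumor-bearing animals. Survival in the compound arm is compared with a vehicle-dosed control arm and expressed as their quotient.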
# [1] = dose: 100.0 mg/kg/injection, schedule: Q01DX001 (ip), vehicle: carboxymethylcellulose (CMC)
# [2] = dose: 200.0 mg/kg/injection, schedule: Q01DX001 (ip), vehicle: carboxymethylcellulose (CMC)
# [3] = dose: 400.0 mg/kg/injection, schedule: Q01DX001 (ip), vehicle: carboxymethylcellulose (CMC)
# [4] = dose: 100.0 mg/kg/injection, schedule: Q04DX003 (ip), vehicle: saline with Tween-80
# [5] = dose: 100.0 mg/kg/injection, schedule: Q04DX002 (ip), vehicle: Klucel (hydroxypropylcellulose) (HPC)
# [6] = dose: 200.0 mg/kg/injection, schedule: Q04DX002 (ip), vehicle: Klucel (hydroxypropylcellulose) (HPC)
# [7] = dose: 400.0 mg/kg/injection, schedule: Q04DX002 (ip), vehicle: Klucel (hydroxypropylcellulose) (HPC)
# [8] = dose: 25.0 mg/kg/injection, schedule: Q04DX002 (ip), vehicle: saline with Tween-80
# [9] = dose: 50.0 mg/kg/injection, schedule: Q01DX009 (ip), vehicle: saline
# [10] = dose: 100.0 mg/kg/injection, schedule: Q04DX002 (ip), vehicle: saline with Tween-80
# [11] = dose: 200.0 mg/kg/injection, schedule: Q04DX002 (ip), vehicle: saline with Tween-80
# [12] = dose: 400.0 mg/kg/injection, schedule: Q04DX002 (ip), vehicle: saline with Tween-80
# [13] = dose: 400.0 mg/kg/injection, schedule: Q01DX001 (ip), vehicle: saline with Tween-80
smiles,measurement,setting,value
O=[N+]([O-])c1ccccc1C1OCCO1,T/C,"dose: 50.0 mg/kg/injection, schedule: Q01DX001 (ip), vehicle: carboxymethylcellulose (CMC)",95 % of control
same,T/C,[1],93 % of control
same,T/C,[2],101 % of control
same,T/C,[3],93 % of control
CCOC(CN(C(C)=O)C1(c2ccc(OC)c(OC)c2)C(=O)c2ccccc2C1=O)OCC,T/C,"dose: 100.0 mg/kg/injection, schedule: Q01DX001 (ip), vehicle: Klucel (hydroxypropylcellulose) (HPC)",110 % of control
same,T/C,"dose: 200.0 mg/kg/injection, schedule: Q01DX001 (ip), vehicle: Klucel (hydroxypropylcellulose) (HPC)",105 % of control
same,T/C,"dose: 400.0 mg/kg/injection, schedule: Q01DX001 (ip), vehicle: Klucel (hydroxypropylcellulose) (HPC)",98 % of control
CC(O)CN1CCCCCC1 (stereo not given),T/C,"dose: 12.5 mg/kg/injection, schedule: Q01DX009 (ip), vehicle: saline with Tween-80",103 % of control
same,T/C,"dose: 25.0 mg/kg/injection, schedule: Q01DX009 (ip), vehicle: saline with Tween-80",94 % of control
same,T/C,"dose: 25.0 mg/kg/injection, schedule: Q04DX003 (ip), vehicle: saline with Tween-80",107 % of control
same,T/C,"dose: 50.0 mg/kg/injection, schedule: Q01DX009 (ip), vehicle: saline with Tween-80",93 % of control
same,T/C,"dose: 50.0 mg/kg/injection, schedule: Q04DX003 (ip), vehicle: saline with Tween-80",107 % of control
same,T/C,[4],95 % of control
CCOC(=O)CNc1cccc(I)c1,T/C,[5],110 % of control
same,T/C,[6],100 % of control
same,T/C,[7],104 % of control
Nc1ccc(CC(=O)O)c(N)c1,T/C,[5],87 % of control
same,T/C,[6],97 % of control
same,T/C,[7],97 % of control
CC1OC(n2cnc3c(N)nc(F)nc32)C(O)C1O (stereo not given),T/C,"dose: 37.5 mg/kg/injection, schedule: Q01DX001 (ip), vehicle: other",112 % of control
FC1(F)SC2C3CCC(C3)C2C1(F)F (stereo not given),T/C,"dose: 6.25 mg/kg/injection, schedule: Q04DX002 (ip), vehicle: saline with Tween-80",95 % of control
same,T/C,"dose: 12.5 mg/kg/injection, schedule: Q04DX002 (ip), vehicle: saline with Tween-80",95 % of control
same,T/C,[8],93 % of control
CNc1ccccc1C(=O)N/N=C\c1ccc(Cl)cc1Cl,T/C,[5],105 % of control
same,T/C,[6],94 % of control
same,T/C,[7],97 % of control
CCOC(CN)C(Cl)(Cl)Cl (stereo not given),T/C,[9],98 % of control
same,T/C,"dose: 100.0 mg/kg/injection, schedule: Q01DX009 (ip), vehicle: saline",98 % of control and 104 % of control
same,T/C,"dose: 200.0 mg/kg/injection, schedule: Q01DX009 (ip), vehicle: saline",101 % of control and 116 % of control
CC1(C)CC[N+]1(C)C,T/C,"dose: 11.0 mg/kg/injection, schedule: Q04DX003 (ip), vehicle: saline",98 % of control and 104 % of control
same,T/C,"dose: 12.0 mg/kg/injection, schedule: Q04DX003 (ip), vehicle: saline",96 % of control
same,T/C,"dose: 16.0 mg/kg/injection, schedule: Q04DX003 (ip), vehicle: saline",94 % of control and 107 % of control
same,T/C,"dose: 25.0 mg/kg/injection, schedule: Q04DX003 (ip), vehicle: saline",94 % of control and 104 % of control
same,T/C,"dose: 40.0 mg/kg/injection, schedule: Q04DX003 (ip), vehicle: saline",102 % of control
same,T/C,"dose: 50.0 mg/kg/injection, schedule: Q04DX003 (ip), vehicle: saline",110 % of control
same,T/C,"dose: 60.0 mg/kg/injection, schedule: Q04DX003 (ip), vehicle: saline",92 % of control
CN(C)C(=S)Oc1c([N+](=O)[O-])cc([N+](=O)[O-])cc1C(C)(C)C,T/C,[8],86 % of control
same,T/C,"dose: 50.0 mg/kg/injection, schedule: Q04DX002 (ip), vehicle: saline with Tween-80",86 % of control
N#C/C(=C\c1ccccc1)C(=O)Nc1ccccc1,T/C,"dose: 100.0 mg/kg/injection, schedule: Q04DX003 (ip), vehicle: Klucel (hydroxypropylcellulose) (HPC)",94 % of control
same,T/C,"dose: 200.0 mg/kg/injection, schedule: Q04DX003 (ip), vehicle: Klucel (hydroxypropylcellulose) (HPC)",92 % of control
same,T/C,"dose: 400.0 mg/kg/injection, schedule: Q04DX003 (ip), vehicle: Klucel (hydroxypropylcellulose) (HPC)",92 % of control
CC1CC(C)OC2(CCCc3ccccc32)O1 (stereo not given),T/C,[10],104 % of control
same,T/C,[11],100 % of control
same,T/C,[12],104 % of control
CCOC(=O)Nc1cc(NC(c2ccccc2)c2ccccc2)c([N+](=O)[O-])c(N)n1,T/C,[1],91 % of control
same,T/C,[2],91 % of control
same,T/C,[3],89 % of control
CCCCCO/N=C\c1c2c(O)c3c(O)c(C)c4c(c3c1O)C(=O)C(C)(O/C=C\C(OC)C(C)C(OC(C)=O)C(C)C(O)C(C)C(O)C(C)/C=C\C=C(\C)C(=O)N2)O4 (stereo not given),T/C,"dose: 50.0 mg/kg/injection, schedule: Q04DX003 (ip), vehicle: water",100 % of control
same,T/C,"dose: 100.0 mg/kg/injection, schedule: Q04DX003 (ip), vehicle: water",94 % of control
same,T/C,"dose: 200.0 mg/kg/injection, schedule: Q04DX003 (ip), vehicle: water",100 % of control
same,T/C,"dose: 400.0 mg/kg/injection, schedule: Q04DX003 (ip), vehicle: water",102 % of control
OC1CCc2c(Cl)sc(Cl)c21 (stereo not given),T/C,[13],98 % of control
CCN1CCC2C[N+](C)([O-])CCN2C1=O (stereo not given),T/C,[4],93 % of control
same,T/C,"dose: 200.0 mg/kg/injection, schedule: Q04DX003 (ip), vehicle: saline with Tween-80",95 % of control
same,T/C,"dose: 400.0 mg/kg/injection, schedule: Q04DX003 (ip), vehicle: saline with Tween-80",98 % of control
CSc1ccc(NC(=O)SCc2ccccc2)cc1,T/C,"dose: 100.0 mg/kg/injection, schedule: Q01DX009 (ip), vehicle: Klucel (hydroxypropylcellulose) (HPC)",97 % of control
same,T/C,"dose: 200.0 mg/kg/injection, schedule: Q01DX009 (ip), vehicle: Klucel (hydroxypropylcellulose) (HPC)",95 % of control
same,T/C,"dose: 400.0 mg/kg/injection, schedule: Q01DX009 (ip), vehicle: Klucel (hydroxypropylcellulose) (HPC)",95 % of control
COc1cc2c(c(OC)c1OC)-c1ccc(SC)c(=O)cc1[C@@H](NC1OC(CO)C(O)C(O)C1O)CC2 (stereo not given in full),T/C,"dose: 25.0 mg/kg/injection, schedule: Q01DX005 (ip), vehicle: saline",102 % of control
same,T/C,[9],150 % of control
same,T/C,"dose: 75.0 mg/kg/injection, schedule: Q01DX009 (ip), vehicle: saline",95 % of control
same,T/C,"dose: 150.0 mg/kg/injection, schedule: Q01DX005 (ip), vehicle: saline",120 % of control
CSCCOP(=O)(N(C)C)N(C)C,T/C,[5],103 % of control
same,T/C,[6],103 % of control
same,T/C,[7],88 % of control
O=C(Nc1ccc(F)c(Cl)c1)Oc1ccc(Br)cc1Br,T/C,[10],100 % of control
same,T/C,[11],107 % of control
same,T/C,[12],100 % of control
NNC(=O)c1ccc[nH]1,T/C,"dose: 75.0 mg/kg/injection, schedule: Q01DX001 (ip), vehicle: saline",102 % of control
CCOc1ccccc1NC(=O)C1CCCCC1C(=O)O (stereo not given),T/C,"dose: 100.0 mg/kg/injection, schedule: Q04DX002 (ip), vehicle: saline",96 % of control
same,T/C,"dose: 200.0 mg/kg/injection, schedule: Q04DX002 (ip), vehicle: saline",112 % of control
O=[N+]([O-])c1[nH]c(Br)c(Br)c1Br,T/C,"dose: 0.75 mg/kg/injection, schedule: Q01DX009 (ip), vehicle: Klucel (hydroxypropylcellulose) (HPC)",92 % of control
same,T/C,"dose: 1.5 mg/kg/injection, schedule: Q01DX009 (ip), vehicle: Klucel (hydroxypropylcellulose) (HPC)",89 % of control
same,T/C,"dose: 3.0 mg/kg/injection, schedule: Q01DX009 (ip), vehicle: Klucel (hydroxypropylcellulose) (HPC)",89 % of control
O=C1c2ccccc2C(=O)c2cc(-c3ccccc3)ccc21,T/C,"dose: 100.0 mg/kg/injection, schedule: Q01DX001 (ip), vehicle: saline with Tween-80",90 % of control
same,T/C,"dose: 200.0 mg/kg/injection, schedule: Q01DX001 (ip), vehicle: saline with Tween-80",93 % of control
same,T/C,[13],87 % of control
CCCCCC(CCCCC)c1ccccn1,T/C,"dose: 100.0 mg/kg/injection, schedule: Q01DX001 (ip), vehicle: saline",94 % of control
same,T/C,"dose: 200.0 mg/kg/injection, schedule: Q01DX001 (ip), vehicle: saline",103 % of control
same,T/C,"dose: 400.0 mg/kg/injection, schedule: Q01DX001 (ip), vehicle: saline",100 % of control
